In ChEMBL document CHEMBL1132189, “Three-dimensional quantitative structure-activity relationship analyses using comparative molecular field analysis and comparative molecular similarity indices analysis to elucidate selectivity differences of inhibitors binding to trypsin, thrombin, and factor Xa” (J Med Chem, 1999):

Assays:
Coagulation factor X = Coagulation factor X (Homo sapiens, UniProt P00742); assay: Binding affinity towards Coagulation factor Xa
Serine protease 1 = molecular target: T1, Serine protease 1 (Bos taurus, UniProt P00760); assay: Binding affinity towards trypsin
T1 sequence (P00760 whole entry): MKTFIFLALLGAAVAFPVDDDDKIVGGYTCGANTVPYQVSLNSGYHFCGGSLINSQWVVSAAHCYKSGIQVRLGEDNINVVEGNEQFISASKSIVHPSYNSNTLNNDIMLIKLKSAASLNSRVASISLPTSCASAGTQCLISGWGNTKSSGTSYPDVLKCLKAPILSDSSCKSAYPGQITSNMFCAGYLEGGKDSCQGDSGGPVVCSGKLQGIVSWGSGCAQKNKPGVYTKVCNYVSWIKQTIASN

Prothrombin = Prothrombin (Bos taurus, UniProt P00735); assay: Binding affinity towards thrombin

Chain of Coagulation factor X (P00742 41-179 limits assumed): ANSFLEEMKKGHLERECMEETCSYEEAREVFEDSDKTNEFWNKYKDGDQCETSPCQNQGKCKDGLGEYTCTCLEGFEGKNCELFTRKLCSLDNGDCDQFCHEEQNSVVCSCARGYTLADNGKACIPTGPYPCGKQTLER
Chain of Coagulation factor X (P00742 235-488 limits assumed): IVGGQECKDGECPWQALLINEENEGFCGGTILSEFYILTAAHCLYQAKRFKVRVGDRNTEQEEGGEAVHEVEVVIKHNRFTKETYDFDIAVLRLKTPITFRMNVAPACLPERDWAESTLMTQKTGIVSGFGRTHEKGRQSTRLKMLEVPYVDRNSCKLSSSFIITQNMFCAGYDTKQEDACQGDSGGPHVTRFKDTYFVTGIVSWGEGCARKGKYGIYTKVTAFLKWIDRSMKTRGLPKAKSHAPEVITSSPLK

Compound | Ki (Coagulation factor X) | Ki (Serine protease 1) | Ki (Prothrombin)
CC(=O)N1CCN(C(=O)[C@H](Cc2cccc(C(=N)N)c2)NS(=O)(=O)c2ccc3ccccc3c2)CC1 | 48 µM | 0.141 µM | –
N=C(N)c1cccc(C[C@H](NS(=O)(=O)c2ccc3ccccc3c2)C(=O)N2CCC(C(=O)O)CC2)c1 | 43.4 µM | 0.579 µM | 0.57 µM
N=C(N)c1cccc(C[C@H](NS(=O)(=O)c2ccc3ccccc3c2)C(=O)N2CCCC[C@@H]2C(=O)O)c1 | 38 µM | 0.631 µM | 0.26 µM
CC(C)c1cc(C(C)C)c(S(=O)(=O)N[C@@H](Cc2cccc(C(=N)N)c2)C(=O)N2CCC[C@H](C(=O)O)C2)c(C(C)C)c1 | 13 µM | 2.4 µM | –
N=C(N)c1cccc(C[C@H](NS(=O)(=O)c2ccc3ccccc3c2)C(=O)C(=O)O)c1 | 130 µM | 118 µM | 30 µM
N=C(N)c1cccc(C[C@H](NS(=O)(=O)c2ccc3ccccc3c2)C(=O)N2CCC[C@H]2C(=O)O)c1 | 130 µM | 16 µM | –
N=C(N)c1cccc(C[C@H](NS(=O)(=O)c2ccc3ccccc3c2)C(=O)N2CC(C(=O)O)=Cc3ccccc32)c1 | 41 µM | 31 µM | –
Cc1c(C)c(S(=O)(=O)N[C@@H](Cc2cccc(C(=N)N)c2)C(=O)N2CCC(C)CC2)c(C)c2c1OC(C)(C)CC2 | 80 µM | 0.729 µM | 0.034 µM
COc1cc(C)c(S(=O)(=O)N[C@@H](Cc2cccc(C(=N)N)c2)C(=O)N2CCC(C)CC2)c(C)c1C | 100 µM | 0.78 µM | 0.0889 µM
COC(=O)N1CCN(C(=O)[C@H](Cc2cccc(C(=N)N)c2)NS(=O)(=O)c2ccc3ccccc3c2)CC1 | 77.6 µM | 0.02 µM | 0.019 µM
CNC(=O)[C@H](Cc1cccc(C(=N)N)c1)NS(=O)(=O)c1c(C)cc(OC)c(C)c1C | 190 µM | 140 µM | 17 µM
N=C(N)c1cccc(C[C@H](NS(=O)(=O)c2ccc3ccccc3c2)C(=O)N2CCC(C=O)CC2)c1 | 19 µM | 0.22 µM | 0.037 µM
CNC(=O)[C@H]1CCCCN1C(=O)[C@H](Cc1cccc(C(=N)N)c1)NS(=O)(=O)c1ccc2ccccc2c1 | 57 µM | 7.94 µM | 2.3 µM
CNC(=O)[C@H](Cc1cccc(C(=N)N)c1)NS(=O)(=O)c1c(C)c(C)c2c(c1C)CCC(C)(C)O2 | 10 µM | 32 µM | –
N=C(N)c1cccc(C[C@H](NS(=O)(=O)c2ccc3ccccc3c2)C(=O)N2CCCCC2)c1 | 38 µM | – | 0.0646 µM
COC(=O)[C@H]1CCCN(C(=O)[C@H](Cc2cccc(C(=N)N)c2)NS(=O)(=O)c2ccc3ccccc3c2)C1 | 18 µM | 0.389 µM | 0.151 µM
N=C(N)c1cccc(C[C@H](NS(=O)(=O)c2ccc3ccccc3c2)C(=O)N2CCCCCC2)c1 | 26 µM | 0.55 µM | 0.021 µM
CC1CCN(C(=O)[C@H](Cc2cccc(C(=N)N)c2)NS(=O)(=O)c2c(C(C)C)cc(C(C)C)cc2C(C)C)CC1 | 2 µM | 0.69 µM | 0.0741 µM
COC(=O)[C@H]1Cc2ccccc2CN1C(=O)[C@H](Cc1cccc(C(=N)N)c1)NS(=O)(=O)c1ccc2ccccc2c1 | 27 µM | 1.2 µM | 0.2 µM
Cc1ccc(S(=O)(=O)N[C@@H](Cc2cccc(C(=N)N)c2)C(=O)N2CCCCC2)cc1 | 15.1 µM | – | 0.34 µM
CS(=O)(=O)N1CCN(C(=O)[C@H](Cc2cccc(C(=N)N)c2)NS(=O)(=O)c2ccc3ccccc3c2)CC1 | 22 µM | 0.19 µM | –
COC(=O)C1CCN(C(=O)[C@H](Cc2cccc(C(=N)N)c2)NS(=O)(=O)c2c(C(C)C)cc(C(C)C)cc2C(C)C)CC1 | 2.6 µM | 0.27 µM | 0.151 µM

Compound | Ki (Coagulation factor X) | Ki (Serine protease 1) | Ki (Prothrombin)
CC1CCN(C(=O)[C@H](Cc2cccc(C(=N)N)c2)NS(=O)(=O)c2cccc3cccnc23)CC1 | 180 µM | – | 0.34 µM
N=C(N)c1cccc(C[C@H](NS(=O)(=O)c2cccc3ccccc23)C(=O)N2CCCCC2)c1 | 17 µM | 0.61 µM | 0.23 µM
CC1CCN(C(=O)[C@H](Cc2cccc(C(=N)N)c2)NS(=O)(=O)c2ccc(C(C)(C)C)cc2)CC1 | 12 µM | 0.2 µM | 0.005 µM
CS(=O)(=O)N1CCN(C(=O)[C@H](Cc2cccc(C(=N)N)c2)NS(=O)(=O)c2cccc3ccccc23)CC1 | 9.71 µM | – | 0.026 µM
CC(C)OC(=O)[C@H]1CCCN(C(=O)[C@H](Cc2cccc(C(=N)N)c2)NS(=O)(=O)c2ccc3ccccc3c2)C1 | 16 µM | 0.427 µM | 0.511 µM
N=C(N)c1cccc(C[C@H](NS(=O)(=O)c2ccc3ccccc3c2)C(=O)N2CCCc3ccccc32)c1 | 2.3 µM | 1.51 µM | 0.12 µM
N=C(N)c1cccc(C[C@H](NS(=O)(=O)c2ccc3ccccc3c2)C(=O)N2CCC[C@H](C(=O)NCc3ccccc3)C2)c1 | 17 µM | 0.12 µM | 0.28 µM
N=C(N)c1cccc(C[C@H](NS(=O)(=O)c2ccc3ccccc3c2)C(=O)N2CCC(C(=O)NCc3ccccc3)CC2)c1 | 35 µM | 0.27 µM | 3.1 µM
CC(C)(C)c1ccc(S(=O)(=O)N[C@@H](Cc2cccc(C(=N)N)c2)C(=O)N2CCN(S(C)(=O)=O)CC2)cc1 | – | 0.16 µM | 0.00427 µM
N=C(N)c1cccc(C[C@H](NS(=O)(=O)c2ccc3ccccc3c2)C(=O)N2CCc3ccccc3C2)c1 | 18 µM | 0.26 µM | 0.037 µM
Cc1ccc(S(=O)(=O)N[C@@H](Cc2cccc(C(=N)N)c2)C(=O)N2CCCC2)cc1 | 76 µM | 2.2 µM | 0.35 µM
CC1CCN(C(=O)[C@@H](N)Cc2cccc(C(=N)N)c2)CC1 | 230 µM | 29 µM | –
Cc1cc(C)c(S(=O)(=O)N[C@@H](Cc2cccc(C(=N)N)c2)C(=O)N2CCC(C)CC2)c(C)c1 | 95.5 µM | 4 µM | 0.059 µM
CC(C)c1cc(C(C)C)c(S(=O)(=O)N[C@@H](Cc2cccc(C(=N)N)c2)C(=O)N2CCC[C@H](C(=O)OCc3ccccc3)C2)c(C(C)C)c1 | 0.899 µM | 0.851 µM | 0.899 µM
CC1CCN(C(=O)[C@H](Cc2cccc(C(=N)N)c2)NS(=O)(=O)c2ccc3ccccc3c2)CC1 | 41 µM | – | –
CS(=O)(=O)N1CCN(C(=O)[C@@H](N)Cc2cccc(C(=N)N)c2)CC1 | 1000 µM | 29 µM | 13 µM
CNC(=O)[C@H](Cc1cccc(C(=N)N)c1)NS(=O)(=O)c1c(C)cc(C)cc1C | 640 µM | 1000 µM | –
CC(C)NC(=O)[C@H](Cc1cccc(C(=N)N)c1)NS(=O)(=O)c1ccc2ccccc2c1 | 360 µM | 16 µM | 6.19 µM
CC1CCN(C(=O)[C@H](Cc2cccc(C(=N)N)c2)NC(=O)OC(C)(C)C)CC1 | 64.6 µM | 14.1 µM | 1.2 µM
CC1CCN(C(=O)[C@H](Cc2cccc(C(=N)N)c2)NS(=O)(=O)c2ccc3c(c2)C(=O)c2ccccc2C3=O)CC1 | 2.3 µM | 0.074 µM | 0.026 µM
N=C(N)c1cccc(C[C@H](NS(=O)(=O)c2ccc3ccccc3c2)C(=O)N2CCC(N3CCCCC3)CC2)c1 | 22 µM | 1 µM | 15.1 µM
